According to patent US20230286998A1, “SUCCINATE SALTS OF OCTAHYDROTHIENOQUINOLINE COMPOUND AND CRYSTALS THEREOF” (KISSEI PHARMACEUTICAL CO., LTD., priority 2020, published 2023):
Entries after “also recorded” stand apart in the source; their conditions may differ. Counter-ions that a name gives are not always drawn.

Tests used:
Assay type in all cases: physicochemical
[1] = Stability Test 1: storage under an open condition at 60° C. (powder X-ray diffraction, HPLC related substances, appearance); settings: 2 months; for Increased Amount of related substance: HPLC area normalization; for Change of Crystal form: powder X-ray diffraction
Experimental: (§1) The Form I crystal of the salt (A-1), the Form I crystal of the salt (A-2), the crystal of hydrochloric acid of the compound (B), the crystal of sebacate salt of the compound (B) and the crystal of adipate salt were stored under an open condition at 60° C., and the physical stability and the chemical stability of each crystal form were examined. The powder X-ray diffractions of the samples at the start of the specimens and 2 months later were measured in the same manner as in Test Example 1, and the physical stability of the crystal forms and the amounts of the related substances were measured using the following HPLC measurement conditions, thereby observing the chemical stability. At the same time, changes in appearance were also observed.
(§2) • Detector: Ultraviolet and visible absorptiometer/wavelength: 225 nm • Column: L-column2 ODS, 3 μm, 4.6×150 mm (manufactured by Chemicals Evaluation and Research Institute, Japan) • Column temperature: constant temperature around 30° C. • Flow rate: 1.0 mL/min • Mobile phase A: a solution (pH 6.9) in which potassium dihydrogen phosphate and dipotassium hydrogen phosphate are mixed in water so as to be each 10 mmol/L • Mobile phase B: acetonitrile • Mobile phase ratios • 0 to 25 minutes: mobile phase A/mobile phase B=79/21 • 25 to 45 minutes: mobile phase A/mobile phase B=79/21 to 25/75 (Gradient) • 45 to 50 minutes: mobile phase A/mobile phase B=25/75 • Injection volume: 5 μL • Sample cooler: 4° C. • Dissolution solvent: A mixed solution prepared by adding 20 parts of acetonitrile to 80 parts of a 20 mmol/L potassium dihydrogen phosphate aqueous solution adjusted to pH 3. • Sample solution: A liquid obtained by dissolving the specimen in the dissolution solvent and adjusting to about 1.0 mg/mL as the compound (B).
(§3) Excluding the peaks derived from the blank, the peak areas of the respective peaks were measured by an automatic integration method, and the values thereof were determined by an area normalization method.

[2] = Stability Test 2: storage under an open condition at 40° C. and 75% relative humidity (powder X-ray diffraction, HPLC related substances, appearance); settings: 2 months; for Increased Amount of related substance: HPLC area normalization; for Change of Crystal form: powder X-ray diffraction
Experimental: as §1, with “hydrochloride salt” for “hydrochloric acid”, “40° C. and 75% relative humidity,” for “60° C.,”
as §2, with “a 10” for “a 20”
as §3

[3] = Water adsorption and desorption test (IGA-Sorp); settings: 25° C.
Experimental: The water adsorption and desorption behaviors of the Form I crystal of the salt (A-1), the crystal of hydrochloride salt of the compound (B) and the crystal of sebacate salt of the compound (B) were measured using IGA-Sorp (manufactured by HIDEN isochema) under the following conditions. The water adsorption and desorption isotherm of the Form I crystal of the salt (A-1) is shown in FIG. 11, and the water adsorption and desorption isotherm of hydrochloride salt of the compound (B) is shown in FIG. 12.
• Form I crystal of salt (A-1): 14.7 mg • Crystal of hydrochloride salt of compound (B): 10.4 mg • Crystal of sebacate salt of compound (B): 13.2 mg
Each specimen was placed in a water adsorption and desorption measurement device. The temperature and the humidity were set to 25° C./40% RH or 50% RH, and equilibration was conducted for 60 minutes or more to stabilize the mass.
The mass of each specimen subjected to mass equilibration was continuously measured while changing the relative humidity at every 5% RH in adsorption and desorption.
The mass % was expressed as a mass percentage of a mass change before and after adsorption (or desorption) based on a dry sample.

[4] = listed as Forn I crystal of the salt (A-2), Monosuccinate Salt

| Structure (SMILES) | chemical stability (in words) [1] | Increased Amount of related substance [1] | Appearance ([1]; Monosuccinate Salt) | Appearance [1, 4] | Change of Crystal form ([1]; Monosuccinate Salt) | Change of Crystal form [1, 4] | chemical stability (in words) [2] | Increased Amount of related substance [2] | Appearance ([2]; Monosuccinate Salt) | Change of Crystal form ([2]; Monosuccinate Salt) | Appearance ([1]; Sesquisuccinate Monohydrate) | Change of Crystal form ([1]; Sesquisuccinate Monohydrate) | Appearance ([2]; Sesquisuccinate Monohydrate) | Change of Crystal form ([2]; Sesquisuccinate Monohydrate) | Change of water amount at adsorption ([3]; 50-90% RH, based on a dry sample) [mass %] | Change of water amount at desorption ([3]; 90-0% RH, based on a dry sample) [mass %] | hygroscopicity (in words) ([3]; water adsorption and desorption) |
| --- | --- | --- | --- | --- | --- | --- | --- | --- | --- | --- | --- | --- | --- | --- | --- | --- | --- |
| CCCN(C(=O)NCCN(C)C)C(=O)[C@@H]1C[C@@H]2Cc3c(sc(N)c3C#N)C[C@H]2N(C)C1.O=C(O)CCC(=O)O [Form I crystal of the salt (A-2), 1-{[(4aR,6R,8aR)-2-Amino-3-cyano-8-methyl-4,4a,5,6,7,8,8a,9-octahydrothieno[3,2-g]quinolin-6-yl]carbonyl}-3-[2-(dimethylamino)ethyl]-1-propylurea Monosuccinate Salt] | chemically stable | −0.05% | almost no change in appearance | White (A slight coloration | No change in crystal form | No change | chemically stable | No increase | no change in appearance; also recorded: No change in white | No change in crystal form |  |  |  |  |  |  |  |
| CCCN(C(=O)NCCN(C)C)C(=O)[C@@H]1C[C@@H]2Cc3c(sc(N)c3C#N)C[C@H]2N(C)C1 [Form I crystal of the salt (A-1), 1-{[(4aR,6R,8aR)-2-Amino-3-cyano-8-methyl-4,4a,5,6,7,8,8a,9-octahydrothieno[3,2-g]quinolin-6-yl]carbonyl}-3-[2-(dimethylamino)ethyl]-1-propylurea Sesquisuccinate Monohydrate] | chemically stable | No increase |  |  |  |  | chemically stable | +0.01% |  |  | almost no change in appearance; also recorded: White (A slight coloration | No change in crystal form | no change in appearance; also recorded: No change in white | No change in crystal form | 0.3 | 0.8 | does not exhibit hygroscopicity |
